# Assay results reported in the supplement of paper PMC11061612.
# Tests used:
# [1] = compound: C1CC(C1)(C(=O)[O-])C(=O)[O-].N.N.[Pt+2] [Carboplatin]; settings: max 10 µM
# Summary of the method: (§1)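 Plates with 1536 wells received cancer cell lines in 7.5 μl of DMEM/F12 or RPMI containing 10% FBS. After 24 hours at 37°C and 5% CO2, cells were dosed for 72 hours with final DMSO typically 0.2%, and viability was read by CellTiter-Glo 2.0 luminescence scaled between blank-well and DMSO-well means. The single-agent IC50 was taken from a logistic fit of the dose responses made with a non-linear mixed effects model, that logistic curve having two parameters.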
# [2] = compound: C1CN(CCC1(C(=O)N[C@@H](CCO)C2=CC=C(C=C2)Cl)N)C3=NC=NC4=C3C=CN4 [AZD5363]; settings: max 10 µM
# Summary of the method: as §1
# [3] = compound: C=CCn1c(=O)c2cnc(Nc3ccc(N4CCN(C)CC4)cc3)nc2n1-c1cccc(C(C)(C)O)n1 [AZD1775]; settings: max 3 µM
# Summary of the method: as §1
# [4] = compound: CC(=O)Nc1cccc(-n2c(=O)n(C3CC3)c(=O)c3c(Nc4ccc(I)cc4F)n(C)c(=O)c(C)c32)c1 [Trametinib]; settings: max 1 µM
# Summary of the method: as §1
# [5] = compound: CC(=O)O[C@H]1C(=O)[C@@]2(C)[C@H]([C@H](OC(=O)c3ccccc3)[C@]3(O)C[C@H](OC(=O)[C@H](O)[C@@H](NC(=O)c4ccccc4)c4ccccc4)C(C)=C1C3(C)C)[C@]1(OC(C)=O)CO[C@@H]1C[C@@H]2O [Paclitaxel]; settings: max 3 µM
# Summary of the method: as §1
# [6] = compound: CC(=O)c1c(C)c2cnc(Nc3ccc(N4CCNCC4)cn3)nc2n(C2CCCC2)c1=O [Palbociclib]; settings: max 10 µM
# Summary of the method: as §1
# [7] = compound: CC(C)n1c(=O)n(C)c2cnc3cc(F)c(-c4ccc(OCCCN5CCCCC5)nc4)cc3c21 [AZD1390]; settings: max 0.3 µM
# Summary of the method: as §1
# [8] = compound: CC1(C)CCC(CN2CCN(c3ccc(C(=O)NS(=O)(=O)c4ccc(NCC5CCOCC5)c([N+](=O)[O-])c4)c(Oc4cnc5[nH]ccc5c4)c3)CC2)=C(c2ccc(Cl)cc2)C1 [Venetoclax]; settings: max 1 µM
# Summary of the method: as §1
# [9] = compound: CC1=C(C(=CC=C1)Cl)NC(=O)C2=CN=C(S2)NC3=CC(=NC(=N3)C)N4CCN(CC4)CCO [Dasatinib]; settings: max 2 µM
# Summary of the method: as §1
# [10] = compound: CC1=CN2[C@@H](C1)C=NC3=CC(=C(C=C3C2=O)OC)OCCCCCOC4=C(C=C5C(=C4)N=C[C@@H]6CC(=CN6C5=O)C)OC [SG3199]; settings: max 0.001 µM
# Summary of the method: as §1
# [11] = compound: CCN(CCO)CCCOc1ccc2c(Nc3cc(CC(=O)Nc4cccc(F)c4)[nH]n3)ncnc2c1 [AZD2811]; settings: max 1 µM
# Summary of the method: as §1
# [12] = compound: CCc1c2c(nc3ccc(O)cc13)-c1cc3c(c(=O)n1C2)COC(=O)[C@]3(O)CC [SN-38]; settings: max 0.3 µM
# Summary of the method: as §1
# [13] = compound: CN(C)CCCOc1ccc(-c2ccc3ncc4c(c3c2)n(C2CCOCC2)c(=O)n4C)cn1 [AZD0156]; settings: max 3 µM
# Summary of the method: as §1
# [14] = compound: CN(CC[C@H](CSC1=CC=CC=C1)NC2=C(C=C(C=C2)S(=O)(=O)NC(=O)C3=CC=C(C=C3)N4CCC(CC4)[C@H](C5=CC=CC=C5C6=CC=C(C=C6)Cl)O)S(=O)(=O)C(F)(F)F)CCO [AZD4320]; settings: max 1 µM
# Summary of the method: as §1
# [15] = compound: COc1cc(Nc2ncc3c(n2)-c2ccc(Cl)cc2C(c2c(F)cccc2OC)=NC3)ccc1C(=O)O [Alisertib]; settings: max 10 µM
# Summary of the method: as §1
# [16] = compound: COc1cc([C@@H]2c3cc4c(cc3[C@@H](O[C@@H]3O[C@@H]5CO[C@@H](C)O[C@H]5[C@H](O)[C@H]3O)[C@H]3COC(=O)[C@H]23)OCO4)cc(OC)c1O [Etoposide]; settings: max 10 µM
# Summary of the method: as §1
# [17] = compound: COc1cc2ncnc(Nc3ccc(F)c(Cl)c3)c2cc1OCCCN1CCOCC1 [Gefitinib]; settings: max 10 µM
# Summary of the method: as §1
# [18] = compound: COc1cccc(OCCCN)c1-c1cc(Nc2cnc(C#N)cn2)n[nH]1 [Prexasertib]; settings: max 1 µM
# Summary of the method: as §1
# [19] = compound: COc1cccc2c1C(=O)c1c(O)c3c(c(O)c1C2=O)C[C@@](O)(C(=O)CO)C[C@@H]3O[C@H]1C[C@H](N)[C@H](O)[C@H](C)O1 [Doxorubicin]; settings: max 1 µM
# Summary of the method: as §1
# [20] = compound: COc1nnc2ccc(N3CCC(c4ccc(OCCN5CCN(C)C(=O)[C@H]5C)cc4)CC3)nn12 [AZD5153]; settings: max 1 µM
# Summary of the method: as §1
# [21] = compound: CS(=O)(=O)CCNCc1ccc(-c2ccc3ncnc(Nc4ccc(OCc5cccc(F)c5)c(Cl)c4)c3c2)o1 [Lapatinib]; settings: max 10 µM
# Summary of the method: as §1
# [22] = compound: C[C@@H](Nc1cc(F)cc(F)c1)c1cc(C(=O)N(C)C)cc2c(=O)cc(N3CCOCC3)oc12 [AZD8186]; settings: max 10 µM
# Summary of the method: as §1
# [23] = compound: C[C@@H](Oc1cc(-c2cnn(C3CCNCC3)c2)cnc1N)c1c(Cl)ccc(F)c1Cl [Crizotinib]; settings: max 10 µM
# Summary of the method: as §1
# [24] = compound: C[C@@H](c1ccc2nccn2c1)n1nnc2ncc(-c3cnn(C)c3)nc21 [Savolitinib]; settings: max 1 µM
# Summary of the method: as §1
# [25] = compound: C[C@@H]1COCCN1C2=NC(=NC(=C2)C3(CC3)[S@](=N)(=O)C)C4=C5C=CNC5=NC=C4 [AZD6738]; settings: max 10 µM
# Summary of the method: as §1
# [26] = compound: Cc1c2c(nn1C)CSCc1cc(n(C)n1)CSc1cc(c3ccccc3c1)OCCCc1c(C(=O)O)n(C)c3c-2c(Cl)ccc13 [AZD5991]; settings: max 1 µM
# Summary of the method: as §1
# [27] = compound: Cc1cc2ncnn2cc1Nc1ncc2c(n1)n(C1CCOCC1)c(=O)n2C [AZD7648]; settings: max 10 µM
# Summary of the method: as §1
# [28] = compound: Cc1nc(-c2cn3c(n2)-c2ccc(-c4cnn(C(C)(C)C(N)=O)c4)cc2OCC3)n(C(C)C)n1 [Taselisib]; settings: max 10 µM
# Summary of the method: as §1
# [29] = compound: Cn1cnc2c(F)c(Nc3ccc(Br)cc3Cl)c(C(=O)NOCCO)cc21 [Selumetinib]; settings: max 10 µM
# Summary of the method: as §1
# [30] = compound: N#Cc1cnc(Nc2cc(NC[C@H]3CNCCO3)c(C(F)(F)F)cn2)cn1 [SRA737]; settings: max 10 µM
# Summary of the method: as §1
# [31] = compound: NC1(c2ccc(-c3nc4ccn5c(=O)[nH]nc5c4cc3-c3ccccc3)cc2)CCC1 [MK-2206]; settings: max 10 µM
# Summary of the method: as §1
# [32] = compound: Nc1ccn([C@@H]2O[C@H](CO)[C@@H](O)C2(F)F)c(=O)n1 [Gemcitabine]; settings: max 0.3 µM
# Summary of the method: as §1
# [33] = compound: O=C(Nc1ccc2[nH]nc(-c3ccncc3)c2c1)[C@@H]1CCN(CC(=O)N2CCN(c3ccc(-c4ncccn4)cc3)CC2)C1; settings: max 5 µM
# Summary of the method: as §1
# [34] = compound: O=C(c1cc(Cc2n[nH]c(=O)c3ccccc23)ccc1F)N1CCN(C(=O)C2CC2)CC1 [Olaparib]; settings: max 10 µM
# Summary of the method: as §1
# [35] = compound: O=c1[nH]cc(F)c(=O)[nH]1 [5-Fluorouracil]; settings: max 20 µM
# Summary of the method: as §1
Cell Line,"IC50, cell viability 72 h [1]","IC50, cell viability 72 h [2]","IC50, cell viability 72 h [3]","IC50, cell viability 72 h [4]","IC50, cell viability 72 h [5]","IC50, cell viability 72 h [6]","IC50, cell viability 72 h [7]","IC50, cell viability 72 h [8]","IC50, cell viability 72 h [9]","IC50, cell viability 72 h [10]","IC50, cell viability 72 h [11]","IC50, cell viability 72 h [12]","IC50, cell viability 72 h [13]","IC50, cell viability 72 h [14]","IC50, cell viability 72 h [15]","IC50, cell viability 72 h [16]","IC50, cell viability 72 h [17]","IC50, cell viability 72 h [18]","IC50, cell viability 72 h [19]","IC50, cell viability 72 h [20]","IC50, cell viability 72 h [21]","IC50, cell viability 72 h [22]","IC50, cell viability 72 h [23]","IC50, cell viability 72 h [24]","IC50, cell viability 72 h [25]","IC50, cell viability 72 h [26]","IC50, cell viability 72 h [27]","IC50, cell viability 72 h [28]","IC50, cell viability 72 h [29]","IC50, cell viability 72 h [30]","IC50, cell viability 72 h [31]","IC50, cell viability 72 h [32]","IC50, cell viability 72 h [33]","IC50, cell viability 72 h [34]","IC50, cell viability 72 h [35]"
KNS-62 (Squamous Cell Lung Carcinoma),> 10000 nM,6590 nM,> 3000 nM,276 nM,273 nM,> 10000 nM,> 300 nM,> 1000 nM,> 2000 nM,> 1 nM,> 1000 nM,53.3 nM,> 3000 nM,> 1000 nM,> 10000 nM,> 10000 nM,> 10000 nM,342 nM,> 1000 nM,632 nM,> 10000 nM,> 10000 nM,> 10000 nM,> 1000 nM,> 10000 nM,> 1000 nM,> 10000 nM,> 10000 nM,> 10000 nM,> 10000 nM,> 10000 nM,> 300 nM,4140 nM,> 10000 nM,> 20000 nM
MRK-nu-1 (Breast Carcinoma),> 10000 nM,> 10000 nM,1660 nM,> 1000 nM,4.68 nM,> 10000 nM,> 300 nM,> 1000 nM,> 2000 nM,> 1 nM,816 nM,35.2 nM,> 3000 nM,> 1000 nM,3630 nM,6130 nM,> 10000 nM,220 nM,629 nM,> 1000 nM,> 10000 nM,> 10000 nM,> 10000 nM,> 1000 nM,9310 nM,46.7 nM,> 10000 nM,> 10000 nM,> 10000 nM,> 10000 nM,> 10000 nM,95.7 nM,> 5000 nM,> 10000 nM,18400 nM
COR-L105 (Lung Adenocarcinoma),> 10000 nM,> 10000 nM,2080 nM,244 nM,> 3000 nM,> 10000 nM,> 300 nM,> 1000 nM,> 2000 nM,> 1 nM,> 1000 nM,> 300 nM,> 3000 nM,> 1000 nM,> 10000 nM,> 10000 nM,2490 nM,> 1000 nM,> 1000 nM,> 1000 nM,6660 nM,> 10000 nM,> 10000 nM,> 1000 nM,> 10000 nM,> 1000 nM,> 10000 nM,7360 nM,> 10000 nM,> 10000 nM,> 10000 nM,> 300 nM,> 5000 nM,> 10000 nM,> 20000 nM
MG-63 (Osteosarcoma),> 10000 nM,6890 nM,2810 nM,> 1000 nM,8.23 nM,> 10000 nM,> 300 nM,> 1000 nM,354 nM,> 1 nM,> 1000 nM,10.8 nM,> 3000 nM,> 1000 nM,2030 nM,> 10000 nM,> 10000 nM,72.7 nM,> 1000 nM,256 nM,> 10000 nM,6320 nM,7070 nM,> 1000 nM,> 10000 nM,> 1000 nM,> 10000 nM,1770 nM,> 10000 nM,> 10000 nM,> 10000 nM,47.3 nM,4710 nM,> 10000 nM,> 20000 nM
A375 (Melanoma),> 10000 nM,> 10000 nM,813 nM,12.6 nM,42 nM,> 10000 nM,> 300 nM,> 1000 nM,> 2000 nM,> 1 nM,> 1000 nM,7.4 nM,> 3000 nM,> 1000 nM,8150 nM,2610 nM,> 10000 nM,210 nM,265 nM,> 1000 nM,> 10000 nM,> 10000 nM,> 10000 nM,> 1000 nM,9240 nM,> 1000 nM,> 10000 nM,> 10000 nM,693 nM,> 10000 nM,> 10000 nM,9.74 nM,538 nM,> 10000 nM,> 20000 nM
